Laboratory results from patent publication US20130012497A1, “METHODS FOR DETECTING ADHD SUSCEPTIBILITY AND […] AND LONG TERM OUTCOME OF ADHD SYMPTOMS” (The United States of America, as represented by the …, priority 2011, published 2013).

Tested on: ADHD symptoms
Assay: Treatment response to stimulant medication on the SWAN scale, by LPHN3-11q genotype
Type: in vivo, human
Conditions: 82 individuals, US1 sample
Procedure: Eighty-two individuals with complete genotype and phenotype information were sampled from the original 240 trios in the US1 sample of Example 1. A comparative analyses regarding stimulant treatment was done as described in Arcos-Burgos et al., Mol. Psychiatry, 15(11): 1053-66 (2010). An analysis was performed to determine the relationship of SWAN scale (Strengths and Weaknesses of ADHD Symptoms and Normal Behavior scale) questions individually as well as inattentive and hyperactive combined dimensions (questions 1-9 indicate inattentive symptoms and questions 10-18 indicate hyperactive symptoms), prior to and after starting treatment with the stimulant methylphenidate.

COC(=O)C(c1ccccc1)C1CCCCN1 (centres unmarked) [methylphenidate]
response to stimulant medication treatment (SWAN scale) (individuals having AA at rs6551665 and fewer than two copies of the susceptibility haplotype on 11q): poor response
change of symptoms after treatment with stimulant medication (SWAN scale question 18, hyperactive-impulsive dimension) (individuals having GG at rs6551665 and two copies of the susceptibility haplotype on 11q): significant improvement of symptoms
